# Test results as given in the supplement of paper PMC6045584.
# ± gives the standard deviation of the averaged measurements.
# Key:
# VINORELBINE = compound: CCC1=C[C@@H]2CN(C1)Cc1c([nH]c3ccccc13)[C@@](C(=O)OC)(c1cc3c(cc1OC)N(C)[C@H]1[C@@](O)(C(=O)OC)[C@H](OC(C)=O)[C@]4(CC)C=CCN5CC[C@]31[C@@H]54)C2 [VINORELBINE]; assay: area under dose-response curve of surviving fraction (unscaled, Aref=0) (surviving fraction x log10(nM)); higher = more resistant; conditions: exposure time: 5 days; dose range 0.5-1000 nM
# Procedure, shortened: (§1)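 Tumour cell lines in 384-well plates were exposed for five days to eight inhibitor concentrations from 0.5 to 1000 nM. Viability was read by CellTiter-Glo luminescence, normalised to DMSO-only wells, in three screens per line. Dose-response survival curves were fitted to surviving fractions by 3-parameter logistic regression in the drc R package. Area under the curve is the unscaled activity area (Aref = 0) over log10 dose.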
# GEMCITABINE = compound: Nc1ccn([C@@H]2O[C@H](CO)[C@@H](O)C2(F)F)c(=O)n1 [GEMCITABINE]; assay: as above; conditions: exposure time: 5 days; dose range 0.5-1000 nM
# Procedure, shortened: as §1
# MK0752 = compound: O=C(O)CC[C@H]1CC[C@@](c2cc(F)ccc2F)(S(=O)(=O)c2ccc(Cl)cc2)CC1 [MK0752]; assay: as above; conditions: exposure time: 5 days; dose range 0.5-1000 nM
# Procedure, shortened: as §1
# PLX-4720 = compound: CCCS(=O)(=O)Nc1ccc(F)c(C(=O)c2c[nH]c3ncc(Cl)cc23)c1F [PLX-4720]; assay: as above; conditions: exposure time: 5 days; dose range 0.5-1000 nM
# Procedure, shortened: as §1
# [1] = compound: O=C(NOCC1CC1)c1ccc(F)c(F)c1Nc1ccc(I)cc1Cl; assay: surviving fraction relative to DMSO-only wells; higher = less growth inhibition; conditions: exposure time: 5 days
# Procedure, shortened: (§2)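 Continuous five-day exposure to inhibitors at 0.5, 1, 5, 10, 50, 100, 500 and 1000 nM started 24 hours after log-phase tumour cell lines were seeded at 250–500 cells per well in 384-well plates. Luminescence was read after 10 minutes at room temperature. Viability is given as surviving fraction, meaning CellTiter-Glo luminescence normalised to the median of DMSO-only wells.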
# ERLOTINIB = compound: C#Cc1cccc(Nc2ncnc3cc(OCCOC)c(OCCOC)cc23)c1 [ERLOTINIB]; assay: as above; conditions: exposure time: 5 days
# Procedure, shortened: as §2
Test System,area under dose-response curve (VINORELBINE),area under dose-response curve (GEMCITABINE),area under dose-response curve (MK0752),area under dose-response curve (PLX-4720),surviving fraction ([1]; 0.5 nM),surviving fraction ([1]; 1 nM),surviving fraction ([1]; 5 nM),surviving fraction ([1]; 10 nM),surviving fraction ([1]; 50 nM),surviving fraction ([1]; 100 nM),surviving fraction ([1]; 500 nM),surviving fraction ([1]; 1000 nM),surviving fraction (ERLOTINIB; 0.5 nM),surviving fraction (ERLOTINIB; 1 nM),surviving fraction (ERLOTINIB; 5 nM),surviving fraction (ERLOTINIB; 10 nM),surviving fraction (ERLOTINIB; 50 nM),surviving fraction (ERLOTINIB; 100 nM),surviving fraction (ERLOTINIB; 500 nM),surviving fraction (ERLOTINIB; 1000 nM)
HSSYII SYNOVIAL,0.855,0.795,3.29,2.43,0.526 ± 0.017,0.847 ± 0.035,0.872 ± 0.041,0.928 ± 0.074,0.663 ± 0.059,0.807 ± 0.058,0.82 ± 0.038,0.821 ± 0.022,0.966 ± 0.066,1.03 ± 0.036,1.02 ± 0.058,1.06 ± 0.031,1.03 ± 0.062,1.01 ± 0.049,1.02 ± 0.063,1 ± 0.076
MDAMB436 BREAST,1.99,1.85,3.02,2.86,0.904 ± 0.065,0.905 ± 0.024,0.932 ± 0.026,0.883 ± 0.029,0.8685 ± 0.0053,0.959 ± 0.085,0.944 ± 0.023,0.78 ± 0.016,0.987 ± 0.03,1.08 ± 0.073,1.07 ± 0.091,1.05 ± 0.15,1.05 ± 0.14,0.941 ± 0.049,0.932 ± 0.066,0.811 ± 0.045
VP229 BREAST,2,1.97,,3.1,1.11 ± 0.054,1.16 ± 0.099,1.24 ± 0.14,1.08 ± 0.041,1.03 ± 0.13,0.908 ± 0.043,0.782 ± 0.039,0.769 ± 0.074,1.05 ± 0.087,1.21 ± 0.12,1.17 ± 0.14,1.1 ± 0.086,1.06 ± 0.091,0.825 ± 0.048,0.568 ± 0.048,0.413 ± 0.06
HCC202 BREAST,1.85,,,3.8,1.38 ± 0.41,1.49 ± 0.64,1.47 ± 0.2,1.28 ± 0.26,1.46 ± 0.16,1.31 ± 0.099,1.37 ± 0.38,1.57 ± 0.043,1.37 ± 0.29,,1.2 ± 0.2,1.2 ± 0.12,1.64 ± 0.29,1.32 ± 0.28,,0.762 ± 0.15
BT20 BREAST,1.54,1.55,,3,0.994 ± 0.099,1.06 ± 0.055,1.03 ± 0.091,0.962 ± 0.13,0.905 ± 0.12,0.928 ± 0.055,0.864 ± 0.061,0.849 ± 0.069,1.22 ± 0.026,1.19 ± 0.11,1.19 ± 0.11,1.13 ± 0.069,1.08 ± 0.069,1.12 ± 0.034,1.03 ± 0.034,0.947 ± 0.081
HMT3552 BREAST,,2.53,,,1.11,1.12,1.01,1.08,1.02,0.941,0.92,0.843,1.03 ± 0.024,1.04 ± 0.036,0.994 ± 0.029,1.03 ± 0.02,1.02 ± 0.064,0.957 ± 0.034,0.85 ± 0.08,0.808 ± 0.053
CAL120 BREAST,1.59,,3.37,2.96,0.928 ± 0.018,0.9302 ± 0.008,0.966 ± 0.025,0.908 ± 0.015,0.899 ± 0.036,0.898 ± 0.015,0.8322 ± 0.0043,0.805 ± 0.01,0.971 ± 0.033,0.964 ± 0.036,0.965 ± 0.041,0.963 ± 0.017,0.988 ± 0.012,0.976 ± 0.052,0.967 ± 0.035,0.958 ± 0.038
NOS1 BONE,1.92,2.31,,3.29,1.15 ± 0.08,1.15 ± 0.075,1.16 ± 0.057,1.16 ± 0.062,0.949 ± 0.065,0.952 ± 0.1,0.863 ± 0.054,0.773 ± 0.016,1.22 ± 0.035,,1.24 ± 0.15,1.18 ± 0.075,1.33 ± 0.045,1.14 ± 0.094,0.827 ± 0.16,0.561 ± 0.011
ASKA SYNOVIAL,1.36,1.03,,3.2,0.658 ± 0.015,1.08 ± 0.052,1.08 ± 0.049,1.14 ± 0.035,0.847 ± 0.019,1.11 ± 0.073,0.973 ± 0.034,0.903 ± 0.029,1.12 ± 0.047,1.15 ± 0.07,1.18 ± 0.06,1.19 ± 0.036,,1.15 ± 0.067,1.09 ± 0.033,0.987 ± 0.099
BT549 BREAST,1.62,1.03,,3.1,1.03 ± 0.11,1.07 ± 0.088,1.08 ± 0.23,1.14 ± 0.03,1.15 ± 0.062,1.21 ± 0.044,1.3 ± 0.067,1.23 ± 0.16,0.973 ± 0.036,1.01 ± 0.15,1.06 ± 0.11,1.1 ± 0.12,1.19 ± 0.071,1.22 ± 0.047,1.13 ± 0.03,1.03 ± 0.069
SUM149.B1*.S BREAST,2.37,1.44,3.78,,0.5813 ± 0.0045,0.956 ± 0.018,0.835 ± 0.058,0.945 ± 0.034,0.6543 ± 0.0045,0.789 ± 0.0088,0.503 ± 0.024,0.459 ± 0.05,1.11 ± 0.071,1.12 ± 0.021,1.09 ± 0.065,1.09 ± 0.017,1.15 ± 0.048,1.08 ± 0.013,1.07 ± 0.069,1.08 ± 0.079
SG27 HEADNECK,3.81,3.22,,2.98,0.918 ± 0.036,1.02 ± 0.075,0.973 ± 0.11,0.986 ± 0.075,1.02 ± 0.22,0.988 ± 0.017,1.13 ± 0.12,1.24 ± 0.19,1 ± 0.036,0.979 ± 0.051,1.08 ± 0.062,1.06 ± 0.16,1.2 ± 0.082,1.1 ± 0.052,1.1 ± 0.037,1.1 ± 0.065
MDAMB157 BREAST,1.41,,,3.07,0.877 ± 0.043,0.86 ± 0.12,0.929 ± 0.1,0.928 ± 0.069,0.85 ± 0.02,0.866 ± 0.037,0.787 ± 0.035,0.664 ± 0.013,0.981 ± 0.071,0.985 ± 0.11,,0.998 ± 0.056,0.97 ± 0.091,1.04 ± 0.018,0.999 ± 0.073,
SCC90 HEADNECK,1.52,1.46,,3.12,0.786 ± 0.13,0.773 ± 0.081,0.991 ± 0.098,0.847 ± 0.16,0.672 ± 0.045,0.495 ± 0.12,0.235 ± 0.036,0.193 ± 0.037,1.1 ± 0.091,1.1 ± 0.011,1.13 ± 0.038,1 ± 0.036,0.94 ± 0.11,0.82 ± 0.086,0.585 ± 0.049,0.534 ± 0.057
